Assay results as given in paper PMC12441791, “Structural modifications of toxyloxanthone C and macluraxanthone isolated from Maclura cochinchinensis: cytotoxicity, antibacterial activity, and in silico studies” (RSC Advances, 2025).
≈ marks a conversion by molar mass, not a printed value. Like-named read-outs stand apart in the source and are kept apart here.

What was measured:
[1] = tested on: Vero (African green monkey kidney) cells; parameters: method as in PMID 35422182; conditions: parent xanthones, previous report, read-out: Cytotoxicity (IC50, μM) Vero; cited from earlier work
[2] = tested on: HepG2 (human hepatocellular carcinoma) cells; parameters: method as in PMID 35422182; conditions: parent xanthones, previous report, read-out: Cytotoxicity (IC50, μM) HepG2; cited from earlier work
[3] = tested on: Bacillus subtilis ATCC 6633; parameters: method as in PMID 35422182; conditions: parent xanthones, previous report; cited from earlier work
[4] = tested on: Bacillus cereus ATCC 11778; parameters: method as in PMID 35422182; conditions: parent xanthones, previous report; cited from earlier work
[5] = tested on: Methicillin resistant Staphylococcus aureus (MRSA); parameters: method as in PMID 35422182; conditions: parent xanthones, previous report; cited from earlier work
[6] = tested on: A549 (human lung carcinoma) cells; parameters: method as in PMID 35422182; conditions: parent xanthones, previous report, read-out: Cytotoxicity (IC50, μM) A549; cited from earlier work
[7] = tested on: HelaS3 (human cervical carcinoma) cells; parameters: method as in PMID 35422182; conditions: parent xanthones, previous report, read-out: Cytotoxicity (IC50, μM) HelaS3; cited from earlier work
S. aureus ATCC 25923 [8] = tested on: S. aureus ATCC 25923; parameters: method as in PMID 35422182; conditions: parent xanthones, previous report; cited from earlier work
[9] = tested on: HepG2 (human hepatocellular carcinoma) cells; assay: In vitro cytotoxicity, HepG2; type: cell-based
Description: (§1) All types of cancer and non-tumorigenic cells were purchased from ATCC. Cytotoxicity assays against human cervical carcinoma (HelaS3; ATCC CCL2-2), human hepatocellular carcinoma (HepG2; ATCC HB-8065), human lung carcinoma (A549; ATCC CCL-185), and African green monkey kidney (Vero; ATCC CCL-81) cell lines were performed by […].[44] Cells proliferation was performed using the MTT colorimetric assay,[44] as in our previous publication.[4]

[10] = tested on: Bacillus cereus ATCC 11778; assay: Antibacterial microdilution MIC, B. cereus; type: cell-based; conditions: ATCC11778, microdilution method, ATCC 11778, read-out: MIC B. cereus
Description: (§2) Four bacterial cultures Bacillus cereus ATCC 11778, Bacillus subtilis ATCC 6633, Staphylococcus aureus ATCC 25923, and Methicillin resistant Staphylococcus aureus (MRSA) were employed as the test organisms. Minimum inhibitory concentration (MIC) values were determined using the dilution method, as described in the M07-A9,[45] as described in our previous paper.[4,46]

[11] = tested on: HelaS3, A549, and HepG2 cancer cell lines; assay: Cytotoxicity stated over the three cancer cell lines; type: cell-based, human; conditions: HelaS3, A549, HepG2 taken together
Description: as §1

[12] = tested on: Bacillus subtilis ATCC 6633; assay: Antibacterial microdilution MIC, B. subtilis; type: cell-based; conditions: ATCC6633, microdilution method, ATCC 6633, read-out: MIC B. subtilis
Description: as §2

[13] = tested on: A549 (human lung carcinoma) cells; assay: In vitro cytotoxicity, A549; type: cell-based
Description: as §1

[14] = tested on: Methicillin resistant Staphylococcus aureus (MRSA); assay: Antibacterial microdilution MIC, MRSA; type: cell-based; conditions: microdilution method, read-out: MIC MRSA
Description: as §2

S. aureus ATCC 25923 [15] = assay: Antibacterial microdilution MIC, S. aureus; type: cell-based; conditions: Staphylococcus aureus, ATCC25923; microdilution method; ATCC 25923; read-out: MIC S. aureus
Description: as §2

[16] = tested on: HelaS3 (human cervical carcinoma) cells; assay: In vitro cytotoxicity, HelaS3; type: cell-based; conditions: HeLa S3
Description: as §1

[17] = In vitro cytotoxicity, Vero normal cells; type: cell-based, African green monkey; conditions: African green monkey, Vero cells (kidney, non-tumorigenic)
Description: as §1

[18] = tested on: MRSA, S. aureus, B. subtilis, and B. cereus; assay: Antibacterial activity stated over all four Gram-positive strains; type: cell-based; conditions: for MIC: read-out: MIC against all bacterial strains tested
Description: as §2

[19] = tested on: Vero (African green monkey kidney) cells; assay: In vitro cytotoxicity, Vero normal cells; type: cell-based
Description: as §1

[20] = MRSA, S. aureus, B. subtilis, B. cereus taken together

MIC [10] [µg/mL] | MIC [12] [µg/mL] | MIC [14] [µg/mL] | MIC (S. aureus ATCC 25923 [15]) [µg/mL] | SMILES | IC50 [9] [µM] | IC50 [13] [µM] | IC50 [16] [µM] | IC50 [17] [µM] | other results
– | – | – | – | CC1Oc2cc3oc4c(O)c(O)ccc4c(=O)c3c(O)c2C1(C)C (centres unmarked) [Compound 1, Toxyloxanthone C] | – | – | – | – | IC50 [1]: 8.52 ± 0.64 µM; IC50 [2]: 20.8 ± 2.57 µM; MIC B. subtilis [3]: 128 µg/mL (≈ 390 µM); MIC B. cereus [4]: 128 µg/mL (≈ 390 µM); MIC MRSA [5]: 128 µg/mL (≈ 390 µM); IC50 [6]: 21.8 ± 4.89 µM; IC50 [7]: 13.6 ± 1.11 µM; MIC S. aureus (S. aureus ATCC 25923 [8]): 128 µg/mL (≈ 390 µM)
> 128 | > 128 | > 128 | > 128 | C=CC(C)(C)c1c2c(c(O)c3c(=O)c4ccc(OCC)c(OCC)c4oc13)C=CC(C)(C)O2 [Compound 2f, 5,6-Diethoxymacluraxanthone] | > 100 | > 100 | > 100 | > 100 | Cytotoxicity against three cancer cell lines (IC50 values, range over lines) [11]: no cytotoxicity
> 128 | > 128 | > 128 | > 128 | C=CC(C)(C)c1c2c(c(OC(=O)CCCC)c3c(=O)c4ccc(OC(=O)CCCC)c(OC(=O)CCCC)c4oc13)C=CC(C)(C)O2 [Compound 2b, 1,5,6-Tripentanoyloxymacluraxanthone] | > 100 | 41.8 ± 1.91 | 55.3 ± 2.18 | 36 ± 2.32 | –
> 128 | > 128 | > 128 | > 128 | C=CC(C)(C)c1c2c(c(O)c3c(=O)c4ccc(O)c(OC)c4oc13)C=CC(C)(C)O2 [Compound 2e, 5-Methoxymacluraxanthone] | > 100 | 90.5 ± 6.23 | > 100 | > 100 | –
– | – | – | – | C=CC(C)(C)c1c2c(c(O)c3c(=O)c4ccc(O)c(O)c4oc13)C=CC(C)(C)O2 [Compound 2, Macluraxanthone] | – | – | – | – | IC50 [1]: 4.29 ± 0.6 µM; IC50 [2]: 5.26 ± 0.41 µM; MIC B. subtilis [3]: 64 µg/mL (≈ 162 µM); MIC B. cereus [4]: 64 µg/mL (≈ 162 µM); MIC MRSA [5]: 16 µg/mL (≈ 40.6 µM); IC50 [6]: 6.46 ± 0.98 µM; IC50 [7]: 1.59 ± 0.12 µM; MIC S. aureus (S. aureus ATCC 25923 [8]): >128 µg/mL
> 128 | > 128 | > 128 | > 128 | C=CC(C)(C)c1c2c(c(O)c3c(=O)c4ccc(OC)c(OC)c4oc13)C=CC(C)(C)O2 [Compound 2d, 5,6-Dimethoxymacluraxanthone] | > 100 | > 100 | > 100 | > 100 | Cytotoxicity against three cancer cell lines (IC50 values, range over lines) [11]: no cytotoxicity

SMILES | MIC [10] [µg/mL] | MIC [12] [µg/mL] | MIC [14] [µg/mL] | MIC (S. aureus ATCC 25923 [15]) [µg/mL] | IC50 [9] [µM] | IC50 [13] [µM] | IC50 [16] [µM] | IC50 [17] [µM] | other results
CC1Oc2c(c(O)c3c(=O)c4ccc(O)c(O)c4oc3c2Br)C1(C)C (centres unmarked) [Compound 1f, 4-Bromotoxyloxanthone C] | 4 (≈ 9.82 µM) | 4 (≈ 9.82 µM) | 4 (≈ 9.82 µM) | 4 (≈ 9.82 µM) | 19.4 ± 1.52 | 7.52 ± 0.36 | 17.4 ± 1.75 | 9.52 ± 1.02 | MIC [18, 20]: 4 µg/mL (≈ 9.82 µM); fold improvement in antibacterial potency (MIC) compared to parent 1 ([18]; all bacterial strains): 32 fold; Cytotoxicity (IC50, μM) Vero [19]: cytotoxic toward normal cells
CC1Oc2cc3oc4c(OS(C)(=O)=O)c(OS(C)(=O)=O)ccc4c(=O)c3c(O)c2C1(C)C (centres unmarked) [Compound 1c, 5,6-Dimesyloxytoxyloxanthone C] | > 128 | > 128 | > 128 | > 128 | > 100 | > 100 | 65.3 ± 3.92 | > 100 | MIC against all bacterial strains tested [18, 20]: no antibacterial activity
C=CC(C)(C)c1c2c(c(O)c3c(=O)c4ccc(OC(C)=O)c(OC(C)=O)c4oc13)C=CC(C)(C)O2 [Compound 2a, 5,6-Diacetoxymacluraxanthone] | 16 (≈ 33.4 µM) | 32 (≈ 66.9 µM) | 8 (≈ 16.7 µM) | 16 (≈ 33.4 µM) | 24.5 ± 2.98 | 15.7 ± 1.17 | 25.6 ± 4.77 | 10.1 ± 1.67 | MIC [18, 20]: 8 to 32 µg/mL (≈ 16.7 to 66.9 µM); IC50 ([11]; Homo sapiens, read-out: Cytotoxicity against three cancer cell lines (IC50 values, range over lines)): 15.7 to 25.6 µM
